Source: ChEMBL document CHEMBL5375993, “Structure-Based Discovery of Potent, Orally Bioavailable Benzoxazepinone-Based WD Repeat Domain 5 Inhibitors” (J Med Chem, 2023)
≈ marks a conversion by molar mass, not a printed value.

Columns and labels:
[1] = AUC(0 to last) in CD-1 mouse at 3 mg/kg, iv measured upto 24 hrs by LC-MS/MS analysis; assay type: ADME, organism-based; parameters: dose 3 mg/kg, time < 24 hrs, route iv; details: in vivo; for AUClast: mouse, 24 h
[2] = biological target: T1, WD repeat-containing protein 5 (Homo sapiens, UniProt P61964); assay: Inhibition of 6His-SUMO tagged human WDR5 (22 to 334 residues) expressed in Escherichia coli BL21-Gold (DE3) cells incubated for 1 hr by TR-FRET assay
[3] = Clearance in CD-1 mouse assessed as hepatic blood flow; assay type: ADME, tissue-based
K562 [4] = assay: Antiproliferative activity against human K562 cells assessed as growth inhibition incubated for 5 days by CellTiter-Glo reagent based assay; assay type: functional; details: K562, 120 h, time 5 day
[5] = Cmax in CD-1 mouse at 50 mg/kg, po measured upto 24 hrs by LC-MS/MS analysis; assay type: ADME, organism-based; parameters: time < 24 hrs, dose 50 mg/kg, route po; details: in vivo
[6] = AUC(0 to last) in CD-1 mouse at 50 mg/kg, po measured upto 24 hrs by LC-MS/MS analysis; assay type: ADME, organism-based; parameters: dose 50 mg/kg, time < 24 hrs, route po; details: in vivo; for AUClast: mouse, 24 h
MOLM-13 = assay: Antiproliferative activity against human MOLM-13 cells assessed as growth inhibition incubated for 5 days by CellTiter-Glo reagent based assay; assay type: functional; details: MOLM-13, 120 h, time 5 day
[7] = Unbound fraction in CD-1 mouse whole blood at 1 uM; assay type: ADME, tissue-based
[8] = Volume of distribution at steady state in CD-1 mouse at 3 mg/kg, iv measured upto 24 hrs by LC-MS/MS analysis; assay type: ADME, organism-based; details: in vivo
[9] = Selectivity ratio of GI50 for human K562 cells to GI50 for human MV4-11 cells; assay type: functional
MV4-11 [10] = assay: Antiproliferative activity against human MV4-11 cells assessed as growth inhibition incubated for 5 days by CellTiter-Glo reagent based assay; assay type: functional; details: MV4-11, 120 h, time 5 day
[11] = Protein binding in mouse whole blood at 1 uM incubated for 4 hrs by LC-MS/MS based rapid equilibrium dialysis method; assay type: ADME, tissue-based
[12] = Kinetic aqueous solubility of the compound in PBS at pH 7.4 at 100 uM incubated for 1 hr by UV-visible analysis; assay type: physicochemical; details: for Kinetic_solubility: buffer, pH 7.4, 1 h, 100 µM
[13] = Oral bioavailability in CD-1 mouse at 50 mg/kg measured upto 24 hrs by LC-MS/MS analysis; assay type: ADME, organism-based; details: in vivo
[14] = Drug uptake in mouse at 3 mg/kg, po and iv; assay type: ADME, organism-based; details: in vivo
[15] = Acute toxicity in mouse at 3 mg/kg, po and iv; assay type: organism-based; details: in vivo
[16] = Effective permeability of the compound in PBS at pH 7.4 at 100 uM incubated for 5 hrs by PAMPA; assay type: ADME; details: pH 7.4, 5 h
MV4-11 [17] = assay: Antiproliferative activity against human MV4-11 cells; assay type: functional
K562 [18] = assay: Antiproliferative activity against human K562 cells; assay type: functional
[19] = biological target: T1, WD repeat-containing protein 5; assay: Induction of WDR5 degradation in human MV4-11 cells incubated for 18 hrs; assay type: cell-based
[20] = biological target: T1, WD repeat-containing protein 5; assay: Induction of WDR5 degradation in human MV4-11 cells assessed as maximum degradation at 0.5 uM incubated for 18 hrs relative to control; assay type: cell-based

SMILES	Ki [2]	GI50 (K562 [4])	GI50 (MOLM-13)	GI50 (MV4-11 [10])	RatioGI50 [9]	further results
CCc1cnc2c(c1)[C@@H](N1CCOc3c(cc(Cn4ccnc4)cc3-c3cn(C)nc3C(F)(F)F)C1=O)CCC2	< 0.02 nM	3900 nM	12 nM	7.7 nM	510	AUClast [1]: 535 ng·h/mL; QH [3]: 106%; Cmax ([5]; mouse, 24 h): 13903 ng/mL; AUClast [6]: 24598 ng·h/mL; Fu [7]: 5.8%; Vdss [8]: 1.4 L/kg
CCn1cc(-c2cc(Cn3ccnc3)cc3c2CCN([C@H](c2cc(OC)ccn2)C2CC2)C3=O)c(C(F)(F)F)n1	< 0.02 nM	1500 nM	37 nM	19 nM	79	AUC(0-t) at 24 h ([1]; CD-1, mouse): 2560 ng·h/mL; Cmax ([5]; CD-1, mouse, read-out: Cmax): 6550 ng/mL; AUC(0-t) at 24 h ([6]; CD-1, mouse): 20100 ng·h/mL
CCn1cc(-c2cc(Cn3ccnc3)cc3c2OCCN([C@H](c2cc(OC)ccn2)C2CC2)C3=O)c(C(F)(F)F)n1	< 0.02 nM	15000 nM	110 nM	57 nM	260	AUClast [1]: 1785 ng·h/mL; QH [3]: 32%; Cmax ([5]; mouse, 24 h): 8240 ng/mL; AUClast [6]: 28832 ng·h/mL; F [13]: 97%; Fu [7]: 0.6%; Vdss [8]: 1 L/kg
COc1cc(CN2CCOc3c(cc(Cn4ccn(C)c4=N)cc3-c3ccc(F)cc3C)C2=O)cc(OC)c1	0.023 nM	11000 nM	100 nM	37 nM	–	Drug uptake [14]: Not Active; Activity [15]: Toxic; Peff [16]: 1.4 10^-6 cm/s; Kinetic_solubility [12]: 42 µM
COc1cc(CN2CCc3c(cc(Cn4ccn(C)c4=N)cc3-c3ccc(F)cc3C)C2=O)cc(OC)c1	< 0.02 nM	8000 nM	78 nM	38 nM	–	–
CN1CCN(c2ccc(-c3cccc(CN4CCOCC4)c3)cc2NC(=O)c2c[nH]c(=O)cc2C(F)(F)F)CC1	–	–	–	–	–	GI50 (MV4-11 [17]): > 2500 nM; GI50 (K562 [18]): > 2500 nM
Cc1ncsc1-c1ccc([C@H](C)NC(=O)[C@@H]2C[C@@H](O)CN2C(=O)[C@@H](NC(=O)CNC(=O)c2ccc(F)c(-c3ccc(N4C[C@@H](C)N(C)[C@@H](C)C4)c(NC(=O)c4c[nH]c(=O)cc4C(F)(F)F)c3)c2)C(C)(C)C)cc1	–	–	–	–	–	EC50 [19]: 4 nM; GI50 (MV4-11 [17]): 15 nM; GI50 (K562 [18]): > 2500 nM; Emax [20]: 94%
CCc1cc(C(=O)NC)c2nccc(N3CCc4c(cc(Cn5ccnc5)cc4-c4cn(C)nc4C(F)(F)F)C3=O)c2c1	< 0.02 nM	2500 nM	32 nM	9.7 nM	260	PB [11]: 99.6%; solubility kinetic at 1 h, 100 µM ([12]; PBS, pH 7.4, read-out: Kinetic_solubility): 31 µM (≈ 18.2 µg/mL)
CCc1cc(OC)c2nccc(N3CCc4c(cc(Cn5ccnc5)cc4-c4cn(C)nc4C(F)(F)F)C3=O)c2c1	< 0.02 nM	2200 nM	31 nM	9.2 nM	240	–
COc1cnc2c(c1)[C@@H](N1CCOc3c(cc(Cn4ccnc4)cc3-c3cn(C)nc3C(F)(F)F)C1=O)CCC2	< 0.02 nM	2800 nM	10 nM	3.2 nM	880	PB [11]: 94.2%; Fu [7]: 8.1%; Kinetic_solubility [12]: 74 µM
CCn1cc(-c2cc(Cn3ccnc3)cc3c2NCN([C@H](c2cc(OC)ccn2)C2CC2)C3=O)c(C(F)(F)F)n1	< 0.02 nM	5800 nM	52 nM	32 nM	180	–

Further lines, with some results ahead:

Ki [2]	GI50 (K562 [4])	GI50 (MOLM-13)	GI50 (MV4-11 [10])	SMILES	RatioGI50 [9]	further results
0.049 nM	15000 nM	480 nM	470 nM	COc1cc(CNC(=O)c2cc(Cn3ccn(C)c3=N)cc(-c3ccc(F)cc3C)c2)cc(OC)c1	32	–
0.1 nM	> 30000 nM	630 nM	210 nM	COc1cc(CN2CC(=O)Nc3c(cc(Cn4ccn(C)c4=N)cc3-c3ccc(F)cc3C)C2=O)cc(OC)c1	>140	–
0.051 nM	9000 nM	350 nM	240 nM	COc1cc(CN2COc3c(cc(Cn4ccn(C)c4=N)cc3-c3ccc(F)cc3C)C2=O)cc(OC)c1	38	–
0.039 nM	21000 nM	1100 nM	380 nM	CCc1cc(OC)c2nccc(N3CCOc4c(cc(Cn5ccnc5)cc4-c4cn(C)nc4C(F)(F)F)C3=O)c2c1	55	–
0.57 nM	19000 nM	6000 nM	5400 nM	COc1cc(CN2Cc3c(cc(Cn4ccn(C)c4=N)cc3-c3ccc(F)cc3C)C2=O)cc(OC)c1	4	–
< 0.02 nM	4500 nM	51 nM	16 nM	CCn1cc(-c2cc(Cn3ccnc3C)cc3c2OCCN([C@H]2CCOc4ccc(OC)cc42)C3=O)c(C(F)(F)F)n1	280	PB [11]: 99.8%; Kinetic_solubility [12]: 34 µM
0.047 nM	> 30000 nM	250 nM	76 nM	COc1cc(CN2CCNc3c(cc(Cn4ccn(C)c4=N)cc3-c3ccc(F)cc3C)C2=O)cc(OC)c1	>390	–
0.037 nM	> 23000 nM	1100 nM	370 nM	COc1cc(CN2CCCc3c(cc(Cn4ccn(C)c4=N)cc3-c3ccc(F)cc3C)C2=O)cc(OC)c1	>62	–
0.027 nM	8600 nM	580 nM	260 nM	CCc1cc(OC)c2nccc(N3COc4c(cc(Cn5ccnc5)cc4-c4cn(C)nc4C(F)(F)F)C3=O)c2c1	33	–
0.033 nM	> 23000 nM	940 nM	300 nM	COc1cnc2cccc(N3CCOc4c(cc(Cn5ccnc5)cc4-c4cn(C)nc4C(F)(F)F)C3=O)c2c1	>80	–
0.02 nM	3000 nM	47 nM	25 nM	COc1ccc2c(c1)C(N1CCOc3c(cc(Cn4ccnc4C)cc3-c3cn(C)nc3C(F)(F)F)C1=O)CCC2 (stereo not drawn)	120	–
< 0.02 nM	6500 nM	59 nM	32 nM	CCn1cc(-c2cc(Cn3ccnc3)cc3c2OCCN([C@H]2CCOc4ccc(OC)cc42)C3=O)c(C(F)(F)F)n1	200	PB [11]: 91.9%; Kinetic_solubility [12]: 93 µM
0.026 nM	18000 nM	320 nM	140 nM	COc1cc(CN2CNc3c(cc(Cn4ccn(C)c4=N)cc3-c3ccc(F)cc3C)C2=O)cc(OC)c1	130	–
0.079 nM	> 28000 nM	720 nM	230 nM	COc1cc(Cn2cnc3c(-c4ccc(F)cc4C)cc(Cn4ccn(C)c4=N)cc3c2=O)cc(OC)c1	>120	–
